# Values quoted from earlier work in patent US8471030B2, “Purification of montelukast using simulated moving bed” (Orochem Technologies Inc., priority 2010, dated 2013).
smiles,measurement,setting,value
CC(C)(O)c1ccccc1CC[C@@H](SCC1(CC(=O)O)CC1)c1cccc(/C=C/c2ccc3ccc(Cl)cc3n2)c1 [Montelukast],stability in acidic solutions,acidic solutions,degrade rapidly
same,stability in solution when exposed to light,"in solution, exposed to light, forms the Montelukast-cis isomer",unstable when exposed to light
